Reference: US11655235B2, “Pyrrolidine and piperidine compounds” (YUHAN CORPORATION, priority 2019, dated 2023)

Columns and labels:
Format in all cases: biochemical
recombinant human PREP = target: T1, recombinant human PREP (Homo sapiens, UniProt P48147); assay: PREP inhibition, fluorogenic substrate Z-Gly-Pro-AMC; details: Inhibitory Activity (IC50, nM) PREP, 25° C., Z-Gly-Pro-AMC substrate
T1 construct: purchased R&D System
T1 sequence (P48147 1-710): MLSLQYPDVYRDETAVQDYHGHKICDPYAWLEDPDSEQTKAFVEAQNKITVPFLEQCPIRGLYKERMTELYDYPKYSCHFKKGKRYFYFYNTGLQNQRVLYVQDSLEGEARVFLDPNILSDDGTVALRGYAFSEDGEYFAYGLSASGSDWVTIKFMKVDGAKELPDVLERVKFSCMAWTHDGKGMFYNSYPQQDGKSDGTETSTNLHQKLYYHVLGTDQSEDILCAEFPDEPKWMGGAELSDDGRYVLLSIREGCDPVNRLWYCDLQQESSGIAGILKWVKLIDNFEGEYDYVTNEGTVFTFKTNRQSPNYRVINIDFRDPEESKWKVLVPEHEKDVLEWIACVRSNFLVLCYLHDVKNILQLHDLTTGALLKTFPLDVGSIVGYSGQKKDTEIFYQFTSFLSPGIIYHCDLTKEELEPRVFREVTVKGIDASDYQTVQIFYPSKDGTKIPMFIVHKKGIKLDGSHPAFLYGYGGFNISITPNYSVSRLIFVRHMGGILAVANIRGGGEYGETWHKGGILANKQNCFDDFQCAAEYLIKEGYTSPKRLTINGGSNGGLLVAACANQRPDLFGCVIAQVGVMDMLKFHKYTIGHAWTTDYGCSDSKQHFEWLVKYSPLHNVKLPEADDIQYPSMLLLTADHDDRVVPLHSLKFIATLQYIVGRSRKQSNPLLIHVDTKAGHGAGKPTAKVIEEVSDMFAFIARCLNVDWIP
In short: (§1)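 Enzyme per reaction: 50 ng DPP9, 20 ng DPP8, 10 ng each DPP7 and PREP. Compounds were serially diluted (8 points, up to 0.5% DMSO) and incubated at 25 °C.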

DPP4 = DPP4 (Homo sapiens, UniProt P27487); assay: DPP4 inhibition, fluorogenic substrate H-Gly-Pro-AMC; set-up: purchased R&D Systems; details: for IC50: 25° C., H-Gly-Pro-AMC substrate; for inhibition at 1 µM: read-out: hDPP4 inhibition % at 1 μM
recombinant human DPP8 = target: T2, recombinant human DPP8 (Homo sapiens, UniProt Q6V1X1); assay: DPP8 inhibition, fluorogenic substrate Z-Ala-Pro-AMC; details: 25° C., Z-Ala-Pro-AMC substrate
T2 construct: purchased PBS Bioscience
In short: as §1

recombinant human DPP7 = target: T3, recombinant human DPP7 (Homo sapiens, UniProt Q9UHL4); assay: DPP7 inhibition, fluorogenic substrate Lys-Pro-AMC
T3 construct: purchased R&D Systems
In short: as §1

Recombinant human FAP = target: T4, Recombinant human FAP (Homo sapiens, UniProt Q12884); assay: FAP inhibition, fluorogenic substrate Z-Gly-Pro-AMC; details: 25° C., Z-Gly-Pro-AMC substrate
T4 construct: purchased R&D systems
T4 sequence (Q12884 1-760): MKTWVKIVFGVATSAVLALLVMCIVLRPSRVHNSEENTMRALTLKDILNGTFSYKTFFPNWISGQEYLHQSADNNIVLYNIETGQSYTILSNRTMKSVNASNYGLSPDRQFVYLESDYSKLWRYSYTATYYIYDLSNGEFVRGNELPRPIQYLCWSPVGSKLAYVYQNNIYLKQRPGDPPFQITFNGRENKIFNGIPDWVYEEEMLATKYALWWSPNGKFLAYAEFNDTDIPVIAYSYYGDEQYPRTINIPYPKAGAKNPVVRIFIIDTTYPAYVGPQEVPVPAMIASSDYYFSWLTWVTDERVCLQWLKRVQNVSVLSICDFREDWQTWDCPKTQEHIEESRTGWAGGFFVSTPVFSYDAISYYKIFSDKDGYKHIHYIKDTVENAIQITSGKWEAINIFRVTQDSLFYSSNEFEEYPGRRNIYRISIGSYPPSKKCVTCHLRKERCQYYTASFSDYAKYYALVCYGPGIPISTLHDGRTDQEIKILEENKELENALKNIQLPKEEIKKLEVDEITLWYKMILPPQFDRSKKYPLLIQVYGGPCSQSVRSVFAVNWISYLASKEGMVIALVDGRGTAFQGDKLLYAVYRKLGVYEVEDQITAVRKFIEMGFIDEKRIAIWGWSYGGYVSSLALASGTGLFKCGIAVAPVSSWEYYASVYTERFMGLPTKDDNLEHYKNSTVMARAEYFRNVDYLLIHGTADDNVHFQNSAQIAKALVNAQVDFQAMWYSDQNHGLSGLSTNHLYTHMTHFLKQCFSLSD
In short: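 Recombinant human FAP, 10 ng per reaction, in 50 mM Tris pH 7.5 with 1 M NaCl and 1 mg/ml BSA at 25° C; substrate Z-Gly-Pro-AMC, ≤0.1% DMSO. AMC fluorescence read at ex 380/em 460 nm; % signal-rate decrease vs no-inhibitor control, 8-point curves fitted to a four-parameter logistic for IC50.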

recombinant human DPP9 = target: T5, recombinant human DPP9 (Homo sapiens, UniProt Q86TI2); assay: DPP9 inhibition, fluorogenic substrate H-Gly-Pro-AMC; details: 25° C., H-Gly-Pro-AMC substrate
T5 construct: purchased R&D Systems
In short: as §1

T2 sequence (Q6V1X1 whole entry): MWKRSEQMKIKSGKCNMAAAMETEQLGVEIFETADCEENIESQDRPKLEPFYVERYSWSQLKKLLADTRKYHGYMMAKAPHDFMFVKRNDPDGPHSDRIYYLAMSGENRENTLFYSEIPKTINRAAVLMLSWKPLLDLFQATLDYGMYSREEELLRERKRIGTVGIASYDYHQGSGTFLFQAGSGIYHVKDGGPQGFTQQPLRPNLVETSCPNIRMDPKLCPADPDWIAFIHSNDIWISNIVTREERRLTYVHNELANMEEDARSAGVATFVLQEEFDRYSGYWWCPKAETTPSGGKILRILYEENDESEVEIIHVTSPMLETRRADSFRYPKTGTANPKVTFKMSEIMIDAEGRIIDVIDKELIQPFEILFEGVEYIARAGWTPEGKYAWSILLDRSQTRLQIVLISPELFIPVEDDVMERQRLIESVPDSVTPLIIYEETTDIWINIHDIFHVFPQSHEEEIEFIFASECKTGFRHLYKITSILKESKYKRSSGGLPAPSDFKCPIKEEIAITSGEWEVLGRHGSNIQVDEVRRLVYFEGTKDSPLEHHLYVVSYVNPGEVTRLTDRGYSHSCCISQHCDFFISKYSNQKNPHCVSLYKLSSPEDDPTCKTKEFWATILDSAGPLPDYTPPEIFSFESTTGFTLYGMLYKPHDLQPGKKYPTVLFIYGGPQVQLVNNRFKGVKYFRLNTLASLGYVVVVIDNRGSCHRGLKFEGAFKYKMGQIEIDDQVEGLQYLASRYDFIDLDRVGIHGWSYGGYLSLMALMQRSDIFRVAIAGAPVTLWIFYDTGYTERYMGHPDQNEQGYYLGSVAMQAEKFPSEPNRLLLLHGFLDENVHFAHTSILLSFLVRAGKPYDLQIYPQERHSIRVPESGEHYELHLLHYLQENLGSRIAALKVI
T5 sequence (Q86TI2 whole entry): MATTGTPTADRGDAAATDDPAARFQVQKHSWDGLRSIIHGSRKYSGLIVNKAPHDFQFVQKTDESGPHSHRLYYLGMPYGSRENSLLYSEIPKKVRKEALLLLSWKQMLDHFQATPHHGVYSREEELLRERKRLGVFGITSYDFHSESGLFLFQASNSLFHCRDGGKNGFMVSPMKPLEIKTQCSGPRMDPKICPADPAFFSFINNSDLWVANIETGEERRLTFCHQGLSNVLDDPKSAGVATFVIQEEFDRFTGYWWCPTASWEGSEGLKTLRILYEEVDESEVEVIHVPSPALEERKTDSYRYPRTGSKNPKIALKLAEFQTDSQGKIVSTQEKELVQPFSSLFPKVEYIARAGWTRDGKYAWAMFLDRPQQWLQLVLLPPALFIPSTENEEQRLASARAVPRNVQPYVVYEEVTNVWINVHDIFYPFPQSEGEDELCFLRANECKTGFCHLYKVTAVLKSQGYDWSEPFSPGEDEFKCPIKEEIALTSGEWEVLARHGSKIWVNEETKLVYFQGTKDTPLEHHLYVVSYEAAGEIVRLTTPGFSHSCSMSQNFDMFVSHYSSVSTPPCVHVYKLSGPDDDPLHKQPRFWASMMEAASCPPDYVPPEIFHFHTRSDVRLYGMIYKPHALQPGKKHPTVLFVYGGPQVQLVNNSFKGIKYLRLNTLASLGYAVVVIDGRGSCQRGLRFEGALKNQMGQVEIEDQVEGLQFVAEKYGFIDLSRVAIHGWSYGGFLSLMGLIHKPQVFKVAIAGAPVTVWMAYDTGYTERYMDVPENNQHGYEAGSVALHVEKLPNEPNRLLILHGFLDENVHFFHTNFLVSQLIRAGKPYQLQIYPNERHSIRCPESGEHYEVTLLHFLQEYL
DPP4, sequence (P27487 whole entry): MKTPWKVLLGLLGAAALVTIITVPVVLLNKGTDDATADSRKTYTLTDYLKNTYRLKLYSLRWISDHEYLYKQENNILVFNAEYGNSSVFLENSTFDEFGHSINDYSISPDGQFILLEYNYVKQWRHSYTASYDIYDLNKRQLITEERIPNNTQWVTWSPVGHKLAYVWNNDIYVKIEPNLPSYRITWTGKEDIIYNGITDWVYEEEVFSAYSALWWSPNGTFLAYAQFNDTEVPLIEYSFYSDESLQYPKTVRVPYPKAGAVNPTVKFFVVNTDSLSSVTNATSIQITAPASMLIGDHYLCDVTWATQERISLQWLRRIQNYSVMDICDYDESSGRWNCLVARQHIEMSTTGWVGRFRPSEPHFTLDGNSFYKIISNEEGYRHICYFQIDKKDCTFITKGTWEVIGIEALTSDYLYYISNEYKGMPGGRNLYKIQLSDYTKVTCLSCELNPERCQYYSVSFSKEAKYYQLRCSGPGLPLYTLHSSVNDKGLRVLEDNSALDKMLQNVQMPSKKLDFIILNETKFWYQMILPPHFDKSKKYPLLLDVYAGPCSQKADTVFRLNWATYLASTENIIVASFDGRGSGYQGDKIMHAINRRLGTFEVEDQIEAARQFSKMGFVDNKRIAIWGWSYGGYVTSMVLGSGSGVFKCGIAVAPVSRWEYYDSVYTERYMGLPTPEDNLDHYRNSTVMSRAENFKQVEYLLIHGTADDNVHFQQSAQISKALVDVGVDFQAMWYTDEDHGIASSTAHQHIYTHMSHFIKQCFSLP

| Compound | IC50 (recombinant human PREP) | IC50 (DPP4) | IC50 (recombinant human DPP8) | IC50 (recombinant human DPP7) | IC50 (Recombinant human FAP) | IC50 (recombinant human DPP9) | inhibition at 1 µM (DPP4) |
| --- | --- | --- | --- | --- | --- | --- | --- |
| N#C[C@@H]1C[C@H](F)CN1C(=O)CN1CC[C@H](NC(=O)c2coc3cc(F)ccc23)C1 [Example 29, N—((S)-1-(2-((2S,4S)-2-cyano-4-fluoropyrrolidin-1-yl)-2-oxoethyl)pyrrolidin-3-yl)-6-fluorobenzofuran-3-carboxamide] | 6170 nM | > 100 µM | 28.7 µM | 0.728 µM | 0.00622 µM | 17.5 µM |  |
| N#C[C@@H]1CCCN1C(=O)CN1CC[C@H](NC(=O)c2cc3ccccc3s2)C1 [Example 36, N—((S)-1-(2-((S)-2-cyanopyrrolidin-1-yl)-2-oxoethyl)pyrrolidin-3-yl)benzo[b]thiophene-2-carboxamide] | 6450 nM | > 1 µM | 21.8 µM | 3.55 µM | 0.0327 µM | > 100 µM |  |
| N#C[C@@H]1CCCN1C(=O)CN1CC[C@H](NC(=O)c2coc3ccccc23)C1 [Example 37, N—((S)-1-(2-((S)-2-cyanopyrrolidin-1-yl)-2-oxoethyl)pyrrolidin-3-yl)benzofuran-3-carboxamide] | 8260 nM | > 1 µM | 72.8 µM | 5.17 µM | 0.0118 µM | > 100 µM |  |
| N#C[C@@H]1CCCN1C(=O)CN1CC[C@H](NC(=O)c2coc3ccc(F)cc23)C1 [Example 43, N—((S)-1-(2-((S)-2-cyanopyrrolidin-1-yl)-2-oxoethyl)pyrrolidin-3-yl)-5-fluorobenzofuran-3-carboxamide] | 8350 nM |  | 44.7 µM | 3.37 µM | 0.00994 µM | > 100 µM | 0.2% |
| N#C[C@@H]1CCCN1C(=O)CN1CC[C@H](NC(=O)c2coc3cc(F)ccc23)C1 [Example 44, N—((S)-1-(2-((S)-2-cyanopyrrolidin-1-yl)-2-oxoethyl)pyrrolidin-3-yl)-6-fluorobenzofuran-3-carboxamide] | 12100 nM |  | 46.2 µM | 1.72 µM | 0.00507 µM | > 100 µM | 1.4% |
| N#C[C@@H]1CCCN1C(=O)CN1CC[C@H](NC(=O)c2coc3cccc(O)c23)C1 [Example 48, N—((S)-1-(2-((S)-2-cyanopyrrolidin-1-yl)-2-oxoethyl)pyrrolidin-3-yl)-4-hydroxybenzofuran-3-carboxamide] | 6750 nM |  | 12 µM | 0.762 µM | 0.00223 µM | > 100 µM | 3.6% |
| N#C[C@@H]1CCCN1C(=O)CN1CC[C@H](NC(=O)c2coc3cc(O)ccc23)C1 [Example 49, N—((S)-1-(2-((S)-2-cyanopyrrolidin-1-yl)-2-oxoethyl)pyrrolidin-3-yl)-6-hydroxybenzofuran-3-carboxamide] | 8360 nM |  | 12.3 µM | 4.37 µM | 0.00442 µM | 92.6 µM | 0.6% |
| N#C[C@@H]1CCCN1C(=O)CN1CC[C@H](NC(=O)c2coc3c(F)cc(F)cc23)C1 [Example 51, N—((S)-1-(2-((S)-2-cyanopyrrolidin-1-yl)-2-oxoethyl)pyrrolidin-3-yl)-5,7-difluorobenzofuran-3-carboxamide] | 13400 nM |  | 38.9 µM | 3.32 µM | 0.0109 µM | > 100 µM | 0.6% |
| N#C[C@@H]1CCCN1C(=O)CN1CC[C@H](NC(=O)c2ccc3ccoc3c2)C1 [Example 57, N—((S)-1-(2-((S)-2-cyanopyrrolidin-1-yl)-2-oxoethyl)pyrrolidin-3-yl)benzofuran-6-carboxamide] | 10200 nM |  | 6 µM | 0.499 µM | 0.0251 µM | 26.5 µM | 0.6% |
| N#C[C@@H]1CCCN1C(=O)CN1CC[C@H](Oc2cccc3cccnc23)C1 [Example 64, (S)-1-(2-((S)-3-(quinolin-8-yloxy)pyrrolidin-1-yl)acetyl)pyrrolidine-2-carbonitrile] | 84000 nM | > 1 µM | > 100 µM | 3.56 µM | 0.019 µM | 15.7 µM |  |
| N#C[C@@H]1CCCN1C(=O)CN1CC[C@H](Oc2cccc3cnccc23)C1 [Example 65, (S)-1-(2-((S)-3-(isoquinolin-5-yloxy)pyrrolidin-1-yl)acetyl)pyrrolidine-2-carbonitrile] | 85700 nM | > 1 µM | > 100 µM | 3.4 µM | 0.00677 µM | 70.6 µM |  |
| N#C[C@@H]1CCCN1C(=O)CN1CC[C@H](Oc2ncnc3sccc23)C1 [Example 68, (S)-1-(2-((S)-3-(thieno[2,3-d]pyrimidin-4-yloxy)pyrrolidin-1-yl)acetyl)pyrrolidine-2-carbonitrile] | > 100000 nM | > 1 µM | > 100 µM | 3.73 µM | 0.00796 µM | > 100 µM |  |

Compounds with a lower IC50 (recombinant human PREP), results first:

| IC50 (recombinant human PREP) | IC50 (DPP4) | IC50 (recombinant human DPP8) | IC50 (recombinant human DPP7) | IC50 (Recombinant human FAP) | IC50 (recombinant human DPP9) | inhibition at 1 µM (DPP4) | Compound |
| --- | --- | --- | --- | --- | --- | --- | --- |
| 3190 nM | > 1 µM | 62.1 µM | 4.13 µM | 0.0037 µM | > 100 µM |  | N#C[C@@H]1CCCN1C(=O)CN1CC[C@H](NC(=O)c2csc3ccccc23)C1 [Example 41, N—((S)-1-(2-((S)-2-cyanopyrrolidin-1-yl)-2-oxoethyl)pyrrolidin-3-yl)benzo[b]thiophene-3-carboxamide] |
| 5500 nM |  | 23.2 µM | 2.39 µM | 0.00848 µM | > 100 µM | 2% | COc1ccc2c(C(=O)N[C@H]3CCN(CC(=O)N4CCC[C@H]4C#N)C3)coc2c1 [Example 54, N—((S)-1-(2-((S)-2-cyanopyrrolidin-1-yl)-2-oxoethyl)pyrrolidin-3-yl)-6-methoxybenzofuran-3-carboxamide] |
| 5250 nM | > 1 µM | 93.2 µM | 0.814 µM | 0.00984 µM | > 100 µM |  | N#C[C@@H]1CCCN1C(=O)CN1CC[C@H](Oc2cccc3[nH]c(=O)ccc23)C1 [Example 75, (S)-1-(2-((S)-3-((2-oxo-1,2-dihydroquinolin-5-yl)oxy)pyrrolidin-1-yl)acetyl)pyrrolidine-2-carbonitrile] |
| 3930 nM | > 1 µM | 27.4 µM | 5.94 µM | 0.0076 µM | 84.9 µM |  | N#C[C@@H]1CCCN1C(=O)CN1CC[C@H](Oc2ccc(Cl)c3cccnc23)C1 [Example 81, (S)-1-(2-((S)-3-((5-chloroquinolin-8-yl)oxy)pyrrolidin-1-yl)acetyl)pyrrolidine-2-carbonitrile] |
| 5400 nM | > 1 µM | > 100 µM | 9.46 µM | 0.001 µM | > 100 µM |  | COc1ccc2nccc(O[C@H]3CCN(CC(=O)N4CCC[C@H]4C#N)C3)c2c1 [Example 84, (S)-1-(2-((S)-3-((6-methoxyquinolin-4-yl)oxy)pyrrolidin-1-yl)acetyl)pyrrolidine-2-carbonitrile] |
